From ChEMBL document CHEMBL1938230, “6-Position optimization of tricyclic 4-quinolone-based inhibitors of glycogen synthase kinase-3β: discovery of nitrile derivatives with picomolar potency” (Bioorg Med Chem Lett, 2012)

Assays:
[1] = target: Serine/threonine-protein kinase mTOR (Homo sapiens) (UniProt P42345); assay: Inhibition of human mTOR in HL-60 cells lysate assessed as reduction of labeling of acyl-phosphate ATP probe at 100 nM; type: cell-free
[2] = target: Phosphatidylinositol 4,5-bisphosphate 3-kinase catalytic subunit gamma isoform (Homo sapiens) (UniProt P48736); assay: Inhibition of human PIK3CG in HL-60 cells lysate assessed as reduction of labeling of acyl-phosphate ATP probe at 100 nM; type: cell-free
[3] = tested on: HL-60; assay: Inhibition of human AurA/AurB/AurC in HL-60 cells lysate assessed as reduction of labeling of acyl-phosphate ATP probe at 100 nM
[4] = target: T1, Serine/threonine-protein kinase 3 (Homo sapiens) (UniProt Q13188); assay: Inhibition of human MST2 in HL-60 cells lysate assessed as reduction of labeling of acyl-phosphate ATP probe at 100 nM; type: cell-free
T1 sequence (whole entry): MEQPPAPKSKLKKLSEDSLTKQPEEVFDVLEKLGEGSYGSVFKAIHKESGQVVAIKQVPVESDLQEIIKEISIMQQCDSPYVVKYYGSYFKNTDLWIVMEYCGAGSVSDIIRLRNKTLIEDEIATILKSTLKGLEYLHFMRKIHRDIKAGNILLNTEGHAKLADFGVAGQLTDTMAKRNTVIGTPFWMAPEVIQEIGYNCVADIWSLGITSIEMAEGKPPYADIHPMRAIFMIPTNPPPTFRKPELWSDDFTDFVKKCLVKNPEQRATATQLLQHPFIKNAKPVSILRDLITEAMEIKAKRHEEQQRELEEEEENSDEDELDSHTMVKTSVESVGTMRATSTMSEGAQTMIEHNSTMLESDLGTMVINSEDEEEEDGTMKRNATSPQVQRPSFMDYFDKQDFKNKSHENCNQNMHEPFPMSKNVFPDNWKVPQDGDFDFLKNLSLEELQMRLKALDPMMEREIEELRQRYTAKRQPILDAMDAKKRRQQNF

[5] = target: Tyrosine-protein kinase HCK (Homo sapiens) (UniProt P08631); assay: Inhibition of human HCK in HL-60 cells lysate assessed as reduction of labeling of acyl-phosphate ATP probe at 100 nM; type: cell-free
[6] = target: Tyrosine-protein kinase SYK (Homo sapiens) (UniProt P43405); assay: Inhibition of human SYK in HL-60 cells lysate assessed as reduction of labeling of acyl-phosphate ATP probe at 100 nM; type: cell-free
[7] = target: T2, Mitogen-activated protein kinase kinase kinase 2 (Homo sapiens) (UniProt Q9Y2U5); assay: Inhibition of human MAP3K2 in HL-60 cells lysate assessed as reduction of labeling of acyl-phosphate ATP probe at 100 nM; type: cell-free
T2 sequence (whole entry): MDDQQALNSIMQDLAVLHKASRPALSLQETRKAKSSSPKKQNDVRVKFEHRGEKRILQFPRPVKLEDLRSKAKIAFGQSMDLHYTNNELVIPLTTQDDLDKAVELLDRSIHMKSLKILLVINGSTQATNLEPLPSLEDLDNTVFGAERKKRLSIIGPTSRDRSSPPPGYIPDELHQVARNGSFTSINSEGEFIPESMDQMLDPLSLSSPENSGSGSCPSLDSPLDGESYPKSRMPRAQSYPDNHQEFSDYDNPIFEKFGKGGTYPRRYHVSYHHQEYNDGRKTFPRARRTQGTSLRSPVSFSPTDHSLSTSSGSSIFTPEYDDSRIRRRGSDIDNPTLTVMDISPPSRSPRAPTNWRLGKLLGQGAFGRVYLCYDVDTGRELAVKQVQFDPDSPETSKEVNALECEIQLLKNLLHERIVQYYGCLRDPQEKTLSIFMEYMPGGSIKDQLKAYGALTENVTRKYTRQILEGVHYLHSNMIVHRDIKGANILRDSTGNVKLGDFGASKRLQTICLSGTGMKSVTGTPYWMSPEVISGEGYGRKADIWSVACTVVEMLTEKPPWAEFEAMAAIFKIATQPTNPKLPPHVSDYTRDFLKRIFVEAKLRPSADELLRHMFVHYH

[8] = target: Mitogen-activated protein kinase 1 (Homo sapiens) (UniProt P28482); assay: Inhibition of human Erk2 in HL-60 cells lysate assessed as reduction of labeling of acyl-phosphate ATP probe at 100 nM; type: cell-free
[9] = target: Cyclin-dependent kinase 13 (Homo sapiens) (UniProt Q14004); assay: Inhibition of human CHED in HL-60 cells lysate assessed as reduction of labeling of acyl-phosphate ATP probe at 100 nM; type: cell-free
[10] = tested on: HL-60; assay: Inhibition of human P38delta/P38gamma in HL-60 cells lysate assessed as reduction of labeling of acyl-phosphate ATP probe at 100 nM
[11] = tested on: MAP4K2 (germinal center kinase) (Homo sapiens); assay: Inhibition of human GCK in HL-60 cells lysate assessed as reduction of labeling of acyl-phosphate ATP probe at 100 nM

Sequence of Tyrosine-protein kinase HCK (Homo sapiens) (P08631 2-526 limits assumed): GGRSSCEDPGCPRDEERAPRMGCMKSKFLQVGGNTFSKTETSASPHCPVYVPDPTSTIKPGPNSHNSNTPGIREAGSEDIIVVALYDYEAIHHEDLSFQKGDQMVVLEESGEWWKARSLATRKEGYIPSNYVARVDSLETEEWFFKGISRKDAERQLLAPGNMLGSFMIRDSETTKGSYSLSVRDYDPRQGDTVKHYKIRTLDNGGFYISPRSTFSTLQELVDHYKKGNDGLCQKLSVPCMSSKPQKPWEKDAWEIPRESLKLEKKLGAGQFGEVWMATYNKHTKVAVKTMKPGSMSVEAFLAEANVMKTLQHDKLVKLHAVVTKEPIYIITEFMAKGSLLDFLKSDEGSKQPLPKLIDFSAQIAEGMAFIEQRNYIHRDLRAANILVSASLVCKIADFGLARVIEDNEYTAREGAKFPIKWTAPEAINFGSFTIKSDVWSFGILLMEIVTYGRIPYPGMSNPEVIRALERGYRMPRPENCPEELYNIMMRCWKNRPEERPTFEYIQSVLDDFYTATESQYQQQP
Sequence of Cyclin-dependent kinase 13 (Homo sapiens) (Q14004 whole entry, looked up): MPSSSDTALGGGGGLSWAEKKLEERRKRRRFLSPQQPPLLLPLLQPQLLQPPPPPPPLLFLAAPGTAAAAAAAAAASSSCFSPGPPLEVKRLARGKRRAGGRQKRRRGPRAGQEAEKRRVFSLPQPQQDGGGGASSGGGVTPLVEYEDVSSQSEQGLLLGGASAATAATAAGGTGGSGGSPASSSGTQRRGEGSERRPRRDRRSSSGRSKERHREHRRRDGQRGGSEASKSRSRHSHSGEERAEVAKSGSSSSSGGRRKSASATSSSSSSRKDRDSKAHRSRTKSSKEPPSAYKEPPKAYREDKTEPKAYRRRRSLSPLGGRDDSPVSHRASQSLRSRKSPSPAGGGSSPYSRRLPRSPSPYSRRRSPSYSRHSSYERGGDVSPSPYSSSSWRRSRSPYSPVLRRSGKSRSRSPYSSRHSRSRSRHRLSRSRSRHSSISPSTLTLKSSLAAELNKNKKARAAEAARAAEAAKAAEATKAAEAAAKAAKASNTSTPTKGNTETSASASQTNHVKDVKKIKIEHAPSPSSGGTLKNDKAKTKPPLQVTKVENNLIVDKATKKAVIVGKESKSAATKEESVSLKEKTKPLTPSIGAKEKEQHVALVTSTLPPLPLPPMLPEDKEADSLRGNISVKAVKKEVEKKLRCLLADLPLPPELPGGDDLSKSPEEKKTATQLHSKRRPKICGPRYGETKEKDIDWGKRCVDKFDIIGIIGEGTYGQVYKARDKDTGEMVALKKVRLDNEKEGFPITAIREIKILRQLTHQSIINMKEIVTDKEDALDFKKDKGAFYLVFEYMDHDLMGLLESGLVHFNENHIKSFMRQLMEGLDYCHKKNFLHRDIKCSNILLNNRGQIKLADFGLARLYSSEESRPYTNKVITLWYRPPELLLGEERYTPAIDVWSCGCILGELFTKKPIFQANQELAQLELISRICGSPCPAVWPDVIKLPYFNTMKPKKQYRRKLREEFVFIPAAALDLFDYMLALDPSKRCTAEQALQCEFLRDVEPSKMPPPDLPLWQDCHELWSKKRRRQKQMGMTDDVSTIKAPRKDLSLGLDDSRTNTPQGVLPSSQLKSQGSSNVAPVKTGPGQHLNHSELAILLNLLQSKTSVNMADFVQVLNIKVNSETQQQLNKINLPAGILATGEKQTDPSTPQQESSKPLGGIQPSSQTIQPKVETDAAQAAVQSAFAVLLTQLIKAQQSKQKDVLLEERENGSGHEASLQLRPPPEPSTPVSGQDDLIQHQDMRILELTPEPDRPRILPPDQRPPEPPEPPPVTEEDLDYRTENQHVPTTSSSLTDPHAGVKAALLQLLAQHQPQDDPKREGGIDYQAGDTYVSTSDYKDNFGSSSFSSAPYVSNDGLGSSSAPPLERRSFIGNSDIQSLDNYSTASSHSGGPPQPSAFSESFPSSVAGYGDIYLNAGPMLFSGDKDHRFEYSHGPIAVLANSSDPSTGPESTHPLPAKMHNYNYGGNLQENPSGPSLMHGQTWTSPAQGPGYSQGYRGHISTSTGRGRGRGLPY
Sequence of Phosphatidylinositol 4,5-bisphosphate 3-kinase catalytic subunit gamma isoform (Homo sapiens) (P48736 whole entry, looked up, canonical isoform): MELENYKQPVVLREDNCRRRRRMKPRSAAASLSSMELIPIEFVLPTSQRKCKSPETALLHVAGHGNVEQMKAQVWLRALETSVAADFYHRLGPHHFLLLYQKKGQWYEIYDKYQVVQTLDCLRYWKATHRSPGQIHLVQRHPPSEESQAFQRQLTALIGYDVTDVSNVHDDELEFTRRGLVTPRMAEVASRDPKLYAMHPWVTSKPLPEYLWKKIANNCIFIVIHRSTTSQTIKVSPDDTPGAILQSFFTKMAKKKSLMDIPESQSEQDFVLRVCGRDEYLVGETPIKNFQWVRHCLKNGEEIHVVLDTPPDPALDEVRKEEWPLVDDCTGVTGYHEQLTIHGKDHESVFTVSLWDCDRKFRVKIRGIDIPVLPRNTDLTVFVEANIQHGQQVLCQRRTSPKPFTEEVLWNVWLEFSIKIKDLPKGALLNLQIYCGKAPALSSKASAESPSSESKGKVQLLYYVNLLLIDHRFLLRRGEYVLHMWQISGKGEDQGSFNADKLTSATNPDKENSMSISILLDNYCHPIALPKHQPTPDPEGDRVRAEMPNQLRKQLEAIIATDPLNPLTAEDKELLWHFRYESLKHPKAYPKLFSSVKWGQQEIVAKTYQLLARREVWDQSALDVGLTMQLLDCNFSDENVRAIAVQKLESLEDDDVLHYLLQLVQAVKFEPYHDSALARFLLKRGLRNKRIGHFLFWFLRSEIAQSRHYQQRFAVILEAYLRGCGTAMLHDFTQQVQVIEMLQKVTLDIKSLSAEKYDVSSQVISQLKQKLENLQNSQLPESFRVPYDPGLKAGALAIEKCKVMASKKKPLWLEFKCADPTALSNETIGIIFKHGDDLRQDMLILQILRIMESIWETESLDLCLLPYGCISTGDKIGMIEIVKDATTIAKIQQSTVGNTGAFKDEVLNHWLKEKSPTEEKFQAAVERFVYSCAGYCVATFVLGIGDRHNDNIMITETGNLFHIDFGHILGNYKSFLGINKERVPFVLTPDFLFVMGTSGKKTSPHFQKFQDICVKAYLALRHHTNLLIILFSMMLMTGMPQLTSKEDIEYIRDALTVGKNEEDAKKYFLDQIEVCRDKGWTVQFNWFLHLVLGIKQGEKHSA
Sequence of Mitogen-activated protein kinase 1 (Homo sapiens) (P28482 whole entry): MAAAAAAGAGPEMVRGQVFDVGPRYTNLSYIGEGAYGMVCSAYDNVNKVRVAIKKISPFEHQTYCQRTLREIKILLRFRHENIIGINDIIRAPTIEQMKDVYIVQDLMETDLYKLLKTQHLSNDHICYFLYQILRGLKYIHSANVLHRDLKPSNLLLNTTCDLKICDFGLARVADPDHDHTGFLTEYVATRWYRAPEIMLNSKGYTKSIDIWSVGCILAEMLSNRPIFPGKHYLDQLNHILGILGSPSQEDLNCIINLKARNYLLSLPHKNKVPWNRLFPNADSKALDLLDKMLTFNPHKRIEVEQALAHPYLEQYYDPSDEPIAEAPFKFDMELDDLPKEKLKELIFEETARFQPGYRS

C[C@H]1COc2c(NCCCn3cccn3)c(F)c(N)c3c(=O)c(C#N)cn1c23
< 35%: inhibition [1] | inhibition [2] | inhibition at 0.1 µM [3] | inhibition [4] | inhibition [5] | inhibition [6] | inhibition [7] | inhibition [8] | inhibition [9] | inhibition at 0.1 µM [10] | inhibition [11]

C[C@H]1COc2c(NCCCc3ccccn3)c(F)c(N)c3c(=O)c(C(=O)O)cn1c23
< 35%: inhibition [1] | inhibition [2] | inhibition at 0.1 µM [3] | inhibition [4] | inhibition [5] | inhibition [6] | inhibition [7] | inhibition [8] | inhibition [9] | inhibition at 0.1 µM [10] | inhibition [11]

C[C@H]1COc2c(NCCCn3cccn3)c(F)c(N)c3c(=O)c(C(=O)O)cn1c23
< 35%: inhibition [1] | inhibition [2] | inhibition at 0.1 µM [3] | inhibition [4] | inhibition [5] | inhibition [6] | inhibition [7] | inhibition [8] | inhibition [9] | inhibition at 0.1 µM [10]

C[C@H]1COc2c(NCCCc3ccccn3)c(F)c(N)c3c(=O)c(C#N)cn1c23
< 35%: inhibition [1] | inhibition [2] | inhibition at 0.1 µM [3] | inhibition [4] | inhibition [5] | inhibition [6] | inhibition [7] | inhibition [8] | inhibition [9] | inhibition at 0.1 µM [10]
